12 compounds from ChEMBL document CHEMBL1201862, “PubChem BioAssay data set” (2004) can be followed below.

Among the test systems are SF-295; RXF 393; A549; KM12; UO-31; ACHN; HOP-92; U-251; SW-620; K562; SR; SK-MEL-28; A498; M19-MEL; HOP-62; OVCAR-4; SK-MEL-2; HL-60.
Assay in all cases: NCI anticancer screen, dose series, 48 h

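1) Cells in 96-well plates. 2) Compound, 48 h, 5 concentrations. 3) Linear interpolation between surrounding doses. 4) Unreached endpoint = highest concentration. GI50 marks 50% less growth.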 Active and inactive are the calls of the source. Cut-off read from the data, not from the text of the source: active = GI50 up to about 1.1 µM and inactive = higher. A value given as a limit tells only on which side of the number the result lay.

In the case of `Nc1nnc(NC(=O)C2=NS(=O)(=O)c3cc(S(N)(=O)=O)c(Cl)cc3N2)[nH]1`, the GI50 with SF-295, in the test on RXF 393, in the test on A549, in the test with KM12, in the test with UO-31 and in the test on ACHN was > 100 µM (inactive) each time. For the same compound, the GI50 in the test with HOP-92, in the test with U-251, with SW-620, in the test on K562, in the test on SR and in the test on SK-MEL-28 was > 100 µM (inactive) throughout. In addition, the GI50 in the test with A498, in the test with M19-MEL, in the test with HOP-62 and with OVCAR-4 was > 100 µM (inactive) each time.

Regarding `O=C(CCc1cc(-c2ccc(F)cc2)n[nH]1)N(Cc1ccccc1)Cc1ccccc1`, the GI50 in the test with SF-295, in the test on RXF 393, with A549, in the test with SK-MEL-2, in the test with KM12 and with UO-31 was > 100 µM (inactive) in each case. The GI50 in the test on ACHN was > 100 µM (inactive); with HOP-92, > 100 µM (inactive); in the test on U-251 it was > 100 µM (inactive); with SW-620, > 100 µM (inactive); with K562, > 100 µM (inactive); with SR, 13.8 µM (inactive). The GI50 with SK-MEL-28, in the test with A498, in the test on M19-MEL and with HOP-62 was > 100 µM (inactive) in each case.

Turning to `CN(C)C(=O)CC(C(=O)O)c1c[nH]c2ccccc12` (stereo unspecified), the GI50 in the test with SF-295 was > 100 µM (inactive); in the test on RXF 393 it was 10.2 µM (inactive); in the test with A549, > 100 µM (inactive); in the test with SK-MEL-2 it was > 100 µM (inactive); in the test with KM12 it was > 100 µM (inactive); in the test on UO-31 it was 0.0895 µM (active). Besides, the GI50 in the test with ACHN, with U-251, in the test on SW-620, with K562, in the test with SR and in the test on A498 was > 100 µM (inactive) in each case. Besides, the GI50 with M19-MEL, in the test with HL-60, in the test with HOP-62 and with OVCAR-4 was > 100 µM (inactive) in each case.

Consider `COc1cccc(N2C(=O)c3c(c4[nH]c5ccccc5c4c4ccc(C(C)(C)C)cc34)C2=O)c1`, for which the GI50 in the test with SF-295, in the test on RXF 393, in the test on A549, with SK-MEL-2, with KM12 and in the test with UO-31 was > 100 µM (inactive) throughout. Further, the GI50 with ACHN, with HOP-92, with U-251, with SW-620, with K562 and in the test on SR was > 100 µM (inactive) in each case. Further, the GI50 in the test with SK-MEL-28, in the test with A498, in the test with M19-MEL, in the test on HOP-62 and with OVCAR-4 was > 100 µM (inactive) throughout.

As for `CCN(CC)C(=O)CCn1cc(F)c(=O)[nH]c1=O`, the GI50 with SF-295, in the test with RXF 393, with A549, in the test on SK-MEL-2, in the test on KM12 and in the test with UO-31 was > 100 µM (inactive) each time. Further, the GI50 with ACHN, in the test on U-251, in the test on SW-620, in the test on K562, in the test with SR and in the test with SK-MEL-28 was > 100 µM (inactive) in each case. For the same compound, the GI50 in the test with M19-MEL, with HL-60, in the test with HOP-62 and in the test on OVCAR-4 was > 100 µM (inactive) in each case.

Regarding `OCC(O)C(OC1OC(CO)C(O)C(O)C1O)c1nn(-c2ccccc2)c2nc3cc(Cl)c(Cl)cc3cc12` (stereo unspecified), the GI50 with SF-295 was > 100 µM (inactive); in the test with RXF 393 it was > 100 µM (inactive); in the test on KM12 it was 45 µM (inactive); in the test on UO-31 it was > 100 µM (inactive); in the test with ACHN, > 100 µM (inactive); in the test with U-251 it was > 100 µM (inactive). Also, the GI50 in the test with K562, in the test with SR, in the test with SK-MEL-28, in the test on A498, in the test on M19-MEL and with HOP-62 was > 100 µM (inactive) in each case. Besides, in the test on OVCAR-4, the GI50 is > 100 µM (inactive).

`CCOC(=O)C1=C(C)C2C3C(=O)NC(=O)C3C1(C)C1C(=O)NC(=O)C21` (stereo unspecified): the GI50 in the test on SF-295, with RXF 393, with A549, in the test on SK-MEL-2, with KM12 and with UO-31 was > 100 µM (inactive) in each case. For the same compound, the GI50 in the test with ACHN, in the test on HOP-92, with U-251, with SW-620, with K562 and in the test on SK-MEL-28 was > 100 µM (inactive) each time. Besides, the GI50 in the test with A498, in the test with M19-MEL, with HL-60, in the test on HOP-62 and in the test on OVCAR-4 was > 100 µM (inactive) in each case.

Take `NNC(=S)N/N=C/C(=C/Nc1ccccc1)[N+](=O)[O-]`: the GI50 in the test with SF-295, in the test on RXF 393, with A549, in the test with SK-MEL-2, in the test on ACHN and with HOP-92 was > 100 µM (inactive) throughout. Besides, the GI50 with SW-620 was > 100 µM (inactive); in the test with K562, 10 µM (inactive); with SR, 1 µM (active); in the test with SK-MEL-28 it was > 100 µM (inactive); in the test with M19-MEL, > 100 µM (inactive); with HL-60, > 100 µM (inactive). For the same compound, the GI50 with HOP-62 and in the test with OVCAR-4 was > 100 µM (inactive) throughout.

With `O=c1c2cc(Br)ccc2nc(-c2ccccc2)n1NCC1(O)OCC(O)C(O)C1O` (stereo unspecified), the GI50 in the test with SF-295, in the test on RXF 393, in the test on A549, in the test on SK-MEL-2, in the test with KM12 and with UO-31 was > 100 µM (inactive) in each case. The GI50 in the test on ACHN is > 100 µM (inactive); in the test with U-251, > 100 µM (inactive); in the test on SW-620 it was > 100 µM (inactive); in the test on K562, > 100 µM (inactive); in the test on SR, 48.8 µM (inactive); in the test with SK-MEL-28, > 100 µM (inactive). Further, the GI50 was > 100 µM (inactive) in the test with A498; > 100 µM (inactive) in the test with M19-MEL; 26.2 µM (inactive) in the test on HL-60; > 100 µM (inactive) with HOP-62; 61.8 µM (inactive) in the test on OVCAR-4.

Take `[N-]=[N+]=Nc1cc(=O)n(-c2ccccc2)c2ccccc12`: the GI50 in the test with SF-295 was > 100 µM (inactive); with RXF 393, 63.1 µM (inactive); in the test on A549, > 100 µM (inactive); in the test on SK-MEL-2, > 100 µM (inactive); with KM12 it was > 100 µM (inactive); in the test with UO-31 it was > 100 µM (inactive). For the same compound, the GI50 with ACHN, with U-251, in the test on SW-620, in the test on K562, in the test on SR and in the test with SK-MEL-28 was > 100 µM (inactive) in each case. The GI50 in the test on M19-MEL, in the test on HL-60, in the test with HOP-62 and with OVCAR-4 was > 100 µM (inactive) each time.

Take `N#Cc1ccccc1NC(=O)/C(=N\N)C(C(=O)c1ccncc1)C1OC(=O)c2ccccc21` (stereo unspecified): the GI50 in the test on SF-295, in the test on A549, in the test on SK-MEL-2, with KM12, in the test with UO-31 and with ACHN was > 100 µM (inactive) throughout. Moreover, the GI50 in the test on HOP-92, in the test with U-251, with SW-620, in the test with K562, in the test with SR and with SK-MEL-28 was > 100 µM (inactive) each time. Also, the GI50 in the test with M19-MEL, with HL-60, in the test with HOP-62 and with OVCAR-4 was > 100 µM (inactive) throughout.

For `COc1ccc(/C(=C\c2cc(OC)c(OC)c(OC)c2)C(=O)O)cc1`, the GI50 is 19.9 µM (inactive) with SF-295; 18.8 µM (inactive) with RXF 393; 40.1 µM (inactive) with A549; 25.4 µM (inactive) in the test on KM12; 25.6 µM (inactive) in the test on UO-31; 72.8 µM (inactive) in the test with ACHN. The GI50 was 33.8 µM (inactive) in the test with HOP-92; 44.6 µM (inactive) in the test with U-251; 35 µM (inactive) with SW-620; 25.8 µM (inactive) with K562; 38.8 µM (inactive) in the test on SR; 76.4 µM (inactive) in the test with SK-MEL-28. The GI50 with A498 was 15.9 µM (inactive); with M19-MEL it was 52 µM (inactive); in the test with HL-60 it was 21.3 µM (inactive); in the test on HOP-62, 37.1 µM (inactive); in the test on OVCAR-4, 85.7 µM (inactive).
